Measured values as given in patent publication US20040258771A1 (priority 2001, published 2004).

What was measured:
[1] = test system: mice; conditions: cited from earlier work
[2] = test system: tumor growth; conditions: has been shown (prior knowledge); cited from earlier work
[3] = test system: Ovarian cancer cells; assay: Human cancer cell assessment, ovarian; type: cell-based
Source text: As a quick secondary screen, the additive alone and in combination with the target drug was examined in these human cancer cell lines. The results of TK-211 are shown as a specific example.

Row | Compound | known reduction of cisplatin side effects [1] | effect on cisplatin efficacy [2] | Cell survival ([3]; 1 μg/ml) [%] | Cell survival ([3]; 2 μg/ml) [%]
1 | NCCCNCCSP(=O)(O)O [Amifostine] | only to slightly reduce weight loss and hypothermia | slight impairment of cisplatin efficacy | – | –
2 | N.N.[Cl][Pt][Cl] [Cisplatin, cis-diamine-dichloroplatinum (II)] | – | – | 3 | 1
